Measurements published in patent publication US6342499B1, “Parasitic and saprophagous mite control in beneficial insects” (BASF Aktiengesellschaft, priority 1998, dated 2002).

Legend:
Format in all cases: in vivo
Varroa jacobsoni = assay: Example 4: METI, topical treatment of honeybees from hives 70% infested with Varroa; parasite mortality; conditions: 5 days at 31° C.
Method: (§1) Honeybees (Apis mellifera) taken from hives which are 70% infested with Varroa jacobsoni are chilled to immobilize the bees. A 1 μl droplet of an acetone solution of test compound is applied to the dorsal abdomen of each bee; control bees receive a 1 μl droplet of acetone. A total of 50-52 bees are treated for each dose rate tested. The treated bees are placed in an incubator at 31° C. in the dark and fed 50% sugar water ad libitum for 5 days. After incubation, the bees are examined for mortality and mite infestation.

[1] = test system: honeybees (Apis mellifera); assay: Example 4: METI, topical treatment of honeybees from hives 70% infested with Varroa; bee mortality; conditions: 5 days at 31° C.
Method: as §1

Drosophila melanogaster = assay: Example 5: treated paper strips in mite-infested Drosophila culture vials; fly mortality; conditions: treated paper strip; for % Mortality Drosophila Adults: after 5 days at 25° C.; for % Mortality Drosophila larvae: after 15 days, percent of expected progeny vs untreated control
Method: (§2) Paper towel strips (2×7 cm) are dipped into an acetone solution of test compound and allowed to dry. Control paper towel strips are dipped into acetone and allowed to dry. Treated strips are placed in 2.5×9.5 cm culture vials containing a standard cornmeal-molasses-agar diet, such that the strips are inserted about 1 cm into the diet. Five pairs of heavily infested, newly emerged Drosophila melanogaster are placed into the test vials and incubated at 25° C. After 5 days, the adult flies are evaluated for % mortality and are removed rom each test vial. After 15 days, the mites [Proctoloaelaps sp.(Proct) and Histiostoma sp.(Hist)] and insect larva/pupa are evaluated for mortality and recorded as a percent of expected progeny as determined by the untreated control. At 14 days approximately 200-500 Histiostoma sp. mites (Hist) and approximately 50 Proctolaelaps sp. mites (Proct) are present in the untreated controls.

[2] = test system: Proctolaelaps sp. mites (Proct); assay: Example 5: treated paper strips in mite-infested Drosophila culture vials; Proctolaelaps mortality; conditions: treated paper strip, after 15 days, percent of expected progeny vs untreated control
Method: as §2

[3] = test system: Acarapis woodi (trachea mites); assay: Example 3: tracheal mites walked across glass slides dipped in test compound; time to 100% mortality; conditions: slides dipped in 500 ppm acetone solution
Method: In this evaluation, honeybees (Apis mellifera) which are infested with Acarapis woodi (trachea mites) are dissected to remove the infested tracheae. Glass microscope slides are dipped into acetone solutions of test compound (500 ppm) and the acetone is allowed to evaporate. Infested tracheae are placed directly on the treated slides. The mites are removed from the tracheae by dissection and forced to walk across the treated area. The elapsed time is recorded for 100% mortality, i.e. no movement is observed upon agitation.

[4] = test system: Histiostoma sp. mites (Hist); assay: Example 5: treated paper strips in mite-infested Drosophila culture vials; Histiostoma mortality; conditions: treated paper strip, after 15 days, percent of expected progeny vs untreated control
Method: as §2

CCCCCCCCCCCCC1=C(OC(C)=O)C(=O)c2ccccc2C1=O [Acequinocyl, acequinocyl]
% Mortality Parasites (Varroa jacobsoni; dose 0.1 μg/bee): 12% | % Mortality Parasites (Varroa jacobsoni; dose 1.0 μg/bee): 0% | % Mortality Parasites (Varroa jacobsoni; dose 10.0 μg/bee): 83% | % Mortality Bees ([1]; dose 0.1 μg/bee): 15% | % Mortality Bees ([1]; dose 1.0 μg/bee): 10% | % Mortality Bees ([1]; dose 10.0 μg/bee): 42%

Fc1ccc(Oc2cc(Oc3ccc(Cl)c(C(F)(F)F)c3)ncn2)cc1C(F)(F)F [C]
% Mortality Drosophila Adults (Drosophila melanogaster; dose 10 ppm): 15% | % Mortality Drosophila larvae (Drosophila melanogaster; dose 10 ppm): 0% | % Mortality Drosophila Adults (Drosophila melanogaster; dose 50 ppm): 20% | % Mortality Drosophila larvae (Drosophila melanogaster; dose 50 ppm): 53% | % Mortality Drosophila Adults (Drosophila melanogaster; dose 100 ppm): 100% | % Mortality Drosophila larvae (Drosophila melanogaster; dose 100 ppm): 73% | % Mortality Mites Proct ([2]; dose 10 ppm): 40% | % Mortality Mites Proct ([2]; dose 50 ppm): 100% | % Mortality Mites Proct ([2]; dose 100 ppm): 100% | Time required in minutes to achieve 100% mortality ([3]; Rep. 1): 16 min | Time required in minutes to achieve 100% mortality ([3]; Rep. 2): 16 min | Time required in minutes to achieve 100% mortality ([3]; Rep. 3): 15 min | % Mortality Mites Hist ([4]; dose 10 ppm): 90% | % Mortality Mites Hist ([4]; dose 50 ppm): 100% | % Mortality Mites Hist ([4]; dose 100 ppm): 100%

CC(C)(C)c1ccc(CCOc2ncnc3ccccc23)cc1 [Fenazaquin, fenazaquin]
% Mortality Parasites (Varroa jacobsoni; dose 0.012 μg/bee): 19% | % Mortality Parasites (Varroa jacobsoni; dose 0.12 μg/bee): 27% | % Mortality Parasites (Varroa jacobsoni; dose 1.2 μg/bee): 87% | % Mortality Bees ([1]; dose 0.012 μg/bee): 18% | % Mortality Bees ([1]; dose 0.12 μg/bee): 14% | % Mortality Bees ([1]; dose 1.2 μg/bee): 18%

Cc1nn(C)c(Oc2ccccc2)c1C=NOCc1ccc(C(=O)OC(C)(C)C)cc1 [Fenpyroximate, fenpyroximate]
% Mortality Parasites (Varroa jacobsoni; dose 0.003 μg/bee): 7% | % Mortality Parasites (Varroa jacobsoni; dose 0.03 μg/bee): 30% | % Mortality Parasites (Varroa jacobsoni; dose 0.3 μg/bee): 100% | % Mortality Bees ([1]; dose 0.003 μg/bee): 13% | % Mortality Bees ([1]; dose 0.03 μg/bee): 10% | % Mortality Bees ([1]; dose 0.3 μg/bee): 24%

CC(C)(C)c1ccc(CSc2cnn(C(C)(C)C)c(=O)c2Cl)cc1 [Pyridaben, pyridaben]
% Mortality Parasites (Varroa jacobsoni; dose 0.001 μg/bee): 14% | % Mortality Parasites (Varroa jacobsoni; dose 0.01 μg/bee): 0% | % Mortality Parasites (Varroa jacobsoni; dose 0.1 μg/bee): 100% | % Mortality Bees ([1]; dose 0.001 μg/bee): 12% | % Mortality Bees ([1]; dose 0.01 μg/bee): 10% | % Mortality Bees ([1]; dose 0.1 μg/bee): 20%
